What is called EC50 is the concentration that produces a half-maximal response. In general, CC50 refers to the concentration giving 50% cytotoxicity.

The structures appear in SMILES notation. Activity calls are given as the source filed them.

The nature of assay [1]: Counterscreen for antagonists of the orexin 1 receptor (OX1R; HCRTR1): Fluorescence-based cell-based high throughput dose response assay to identify antagonists of the parental CHO cell line. [Related pubchem assays (depositor defined):AID434989, AID435008, AID463079, AID485270, AID492963, AID492964, AID492965, AID493232, AID504699, AID504701]. The class given is functional.

For assay [2], the target named is T1, Orexin/Hypocretin receptor type 1 (Homo sapiens, UniProt O43613). As to the kind of experiment: Homogeneous Time Resolved Fluorescence (HTRF)-based cell-based high throughput dose response assay for antagonists of the orexin 1 receptor (OX1R; HCRTR1). [Related pubchem assays (depositor defined):AID434989, AID435008, AID463079, AID485270, AID492963, AID492964, AID492965, AID493232, AID504717, AID504718]. In kind it is functional.

Assay [3] has as its target T1, Orexin/Hypocretin receptor type 1. As to the kind of experiment: Fluorescence-based cell-based high throughput dose response assay for antagonists of the orexin 1 receptor (OX1R; HCRTR1). [Related pubchem assays (depositor defined):AID434989, AID435008, AID463079, AID485270, AID492963, AID492964, AID492965, AID493232, AID504717, AID504718]. In kind it is functional.

Assay [4] concerns the target T2, Orexin receptor type 2 (Homo sapiens, UniProt O43614). As to the kind of experiment: Counterscreen assay for antagonists of the orexin 1 receptor (OX1R; HCRTR1): Fluorescence-based cell-based dose response assay for antagonists of the orexin 2 receptor (OX2R; HCRTR2), run by assay provider. The class given is functional.
Assay [5] concerns the target T2, Orexin receptor type 2. As to the kind of experiment: Counterscreen assay for antagonists of the orexin 1 receptor (OX1R; HCRTR1): Homogeneous Time Resolved Fluorescence (HTRF)-based cell-based dose response assay for antagonists of the orexin 2 receptor (OX2R; HCRTR2), run by assay provider. The class given is functional. For orientation: A counterscreen serves to expose hits that act by an unwanted route or on another target.

A further assay deals with CHO-K1. As to the kind of experiment: Counterscreen for antagonists of the orexin 1 receptor (OX1R; HCRTR1): Homogeneous time resolved fluorescence (HTRF)-based cell-based dose response assay to identify antagonists of the parental CHO-K1 cell line. [Related pubchem assays (depositor defined):AID434989, AID435008, AID463079, AID485270, AID492963, AID492964, AID492965, AID493232, AID504699, AID504701]. The class given is functional. The note with it: Cricetulus griseus.

The target in assay [6] is T3, High affinity choline transporter 1 (Homo sapiens, UniProt Q9GZV3).
T3 sequence (Q9GZV3 whole entry): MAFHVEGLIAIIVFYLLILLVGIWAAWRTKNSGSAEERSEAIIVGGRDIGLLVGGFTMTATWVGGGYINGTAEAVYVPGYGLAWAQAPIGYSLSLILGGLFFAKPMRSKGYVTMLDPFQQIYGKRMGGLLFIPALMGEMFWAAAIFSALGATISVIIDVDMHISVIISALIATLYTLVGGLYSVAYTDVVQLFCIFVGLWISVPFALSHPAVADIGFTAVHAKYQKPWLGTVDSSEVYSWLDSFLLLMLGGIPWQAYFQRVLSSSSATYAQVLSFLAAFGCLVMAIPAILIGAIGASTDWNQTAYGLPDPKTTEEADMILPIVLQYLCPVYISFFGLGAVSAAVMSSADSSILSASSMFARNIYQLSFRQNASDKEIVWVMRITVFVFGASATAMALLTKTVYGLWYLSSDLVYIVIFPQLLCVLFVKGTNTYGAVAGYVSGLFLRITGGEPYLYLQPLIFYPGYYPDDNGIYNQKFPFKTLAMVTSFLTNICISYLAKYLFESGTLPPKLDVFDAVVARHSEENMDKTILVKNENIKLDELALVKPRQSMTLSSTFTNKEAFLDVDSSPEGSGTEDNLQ
In words: human choline transporter potentiators, potency – cell-based, 10-point CRC, membrane potential dye, dose response (AID 602376). The class given is functional.

A further assay deals with Troponin, cardiac muscle (Homo sapiens, UniProt P19429+P45379+P63316). As to the kind of experiment: Fluorescence-based biochemical high throughput dose response assay for activators of the calcium sensitivity of cardiac Regulated Thin Filaments (RTF). [Related pubchem assays (depositor defined):AID493008, AID493018, AID504382, AID504383]. The class given is protein-complex assay.

For assay [7], the target named is T4, Sentrin-specific protease 6 (Homo sapiens, UniProt Q9GZR1).
T4 sequence (Q9GZR1 whole entry): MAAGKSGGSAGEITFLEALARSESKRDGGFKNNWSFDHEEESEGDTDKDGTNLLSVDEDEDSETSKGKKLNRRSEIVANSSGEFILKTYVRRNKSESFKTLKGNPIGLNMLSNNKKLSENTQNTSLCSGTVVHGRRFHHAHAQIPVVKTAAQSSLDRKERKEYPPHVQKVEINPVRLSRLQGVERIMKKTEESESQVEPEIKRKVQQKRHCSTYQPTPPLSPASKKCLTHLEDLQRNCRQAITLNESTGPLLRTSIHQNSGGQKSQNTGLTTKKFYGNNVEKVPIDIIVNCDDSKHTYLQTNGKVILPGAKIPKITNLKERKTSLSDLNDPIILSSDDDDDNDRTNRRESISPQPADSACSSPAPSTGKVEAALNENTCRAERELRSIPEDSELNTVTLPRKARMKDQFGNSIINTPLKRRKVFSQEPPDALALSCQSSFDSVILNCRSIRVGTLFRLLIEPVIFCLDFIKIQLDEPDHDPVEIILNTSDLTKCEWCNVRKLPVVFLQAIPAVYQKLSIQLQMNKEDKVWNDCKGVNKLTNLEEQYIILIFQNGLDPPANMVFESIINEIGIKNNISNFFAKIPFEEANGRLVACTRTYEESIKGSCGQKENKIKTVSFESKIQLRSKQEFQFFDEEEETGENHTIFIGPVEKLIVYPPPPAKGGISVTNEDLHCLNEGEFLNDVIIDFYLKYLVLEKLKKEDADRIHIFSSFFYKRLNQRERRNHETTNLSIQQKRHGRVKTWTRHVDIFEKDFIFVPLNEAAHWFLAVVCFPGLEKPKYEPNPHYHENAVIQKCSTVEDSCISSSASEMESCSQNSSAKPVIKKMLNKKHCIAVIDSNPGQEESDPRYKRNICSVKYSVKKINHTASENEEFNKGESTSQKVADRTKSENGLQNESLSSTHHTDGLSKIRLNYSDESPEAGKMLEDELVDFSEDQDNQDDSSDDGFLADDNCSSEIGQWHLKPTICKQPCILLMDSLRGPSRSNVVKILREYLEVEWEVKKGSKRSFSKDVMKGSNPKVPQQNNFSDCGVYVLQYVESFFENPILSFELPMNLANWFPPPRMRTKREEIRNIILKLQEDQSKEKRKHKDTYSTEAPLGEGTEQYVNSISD
In words: SAR Analysis of small molecule inhibitors of Sentrin-specific protease 6 (SENP6) using a Luminescent assay. [Related pubchem assays (depositor defined):AID2582, AID2599]. In kind it is functional.

Assay [8] addresses T5, Sentrin-specific protease 7 (Homo sapiens, UniProt Q9BQF6).
T5 sequence (Q9BQF6 whole entry): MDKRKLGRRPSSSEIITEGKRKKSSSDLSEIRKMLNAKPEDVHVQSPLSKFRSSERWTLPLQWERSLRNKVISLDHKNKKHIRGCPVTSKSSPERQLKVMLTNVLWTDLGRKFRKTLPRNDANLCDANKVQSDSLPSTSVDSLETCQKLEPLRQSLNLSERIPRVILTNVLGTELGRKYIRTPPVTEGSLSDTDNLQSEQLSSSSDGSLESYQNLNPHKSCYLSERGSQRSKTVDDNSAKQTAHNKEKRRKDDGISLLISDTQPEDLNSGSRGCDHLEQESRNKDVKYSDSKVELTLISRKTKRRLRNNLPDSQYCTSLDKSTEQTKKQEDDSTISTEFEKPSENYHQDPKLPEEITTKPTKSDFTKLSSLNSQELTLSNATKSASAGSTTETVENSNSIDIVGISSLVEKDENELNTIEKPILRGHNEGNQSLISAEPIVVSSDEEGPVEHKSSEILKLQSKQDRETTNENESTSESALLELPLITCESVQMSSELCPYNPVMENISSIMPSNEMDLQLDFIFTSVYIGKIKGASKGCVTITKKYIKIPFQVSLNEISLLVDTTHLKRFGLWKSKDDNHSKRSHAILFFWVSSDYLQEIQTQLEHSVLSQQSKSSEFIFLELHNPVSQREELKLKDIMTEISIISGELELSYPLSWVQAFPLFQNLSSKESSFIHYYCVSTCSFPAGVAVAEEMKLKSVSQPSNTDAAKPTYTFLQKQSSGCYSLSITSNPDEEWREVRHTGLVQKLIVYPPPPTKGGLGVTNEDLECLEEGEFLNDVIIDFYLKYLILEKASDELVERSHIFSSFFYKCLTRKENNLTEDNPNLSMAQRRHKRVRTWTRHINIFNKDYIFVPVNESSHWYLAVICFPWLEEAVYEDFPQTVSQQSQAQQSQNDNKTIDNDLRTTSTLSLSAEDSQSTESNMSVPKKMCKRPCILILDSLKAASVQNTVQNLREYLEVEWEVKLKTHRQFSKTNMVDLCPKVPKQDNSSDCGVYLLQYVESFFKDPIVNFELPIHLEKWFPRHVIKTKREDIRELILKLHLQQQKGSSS
As to the kind of experiment: inhibition of human SENP7 cleavage activity – biochemical, luminescence, SAR follow-up (AID 504497). The class given is functional.

The next assay has as its target T6, Caspase-3 (Homo sapiens, UniProt P42574).
T6 sequence (P42574 whole entry): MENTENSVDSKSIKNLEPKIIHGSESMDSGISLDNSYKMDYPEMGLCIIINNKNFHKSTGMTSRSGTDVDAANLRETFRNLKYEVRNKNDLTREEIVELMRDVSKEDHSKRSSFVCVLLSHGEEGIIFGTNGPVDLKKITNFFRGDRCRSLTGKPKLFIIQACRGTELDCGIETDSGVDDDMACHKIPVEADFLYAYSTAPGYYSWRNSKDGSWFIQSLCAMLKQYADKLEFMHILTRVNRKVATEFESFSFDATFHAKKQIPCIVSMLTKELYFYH
In words: SAR Analysis of small molecule inhibitors of Sentrin-specific proteases (SENPs) using a Caspase-3 Selectivity assay. [Related pubchem assays (depositor defined):AID2540, AID2599, AID434973, AID489001]. In kind it is functional.

Assay [9] concerns the target T7, Sentrin-specific protease 8 (Homo sapiens, UniProt Q96LD8).
T7 sequence (Q96LD8 whole entry): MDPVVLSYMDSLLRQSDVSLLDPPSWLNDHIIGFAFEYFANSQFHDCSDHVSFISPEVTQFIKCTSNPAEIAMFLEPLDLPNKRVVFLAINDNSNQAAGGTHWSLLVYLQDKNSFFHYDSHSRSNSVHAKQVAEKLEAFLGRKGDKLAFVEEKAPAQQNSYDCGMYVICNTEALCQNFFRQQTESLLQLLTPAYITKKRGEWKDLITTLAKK
In words: inhibition of human SENP8 cleavage activity – biochemical, luminescence, SAR follow-up (AID 504501). In kind it is functional.

Assay [10] has as its target DNA dC->dU-editing enzyme APOBEC-3A (Homo sapiens, UniProt P31941). In words: SAR analysis of small molecule inhibitors of APOBEC3A DNA Deaminase via a fluorescence-based single-stranded DNA deaminase assay. The class given is functional. The note with it: read-out: IC50_Mean.
The target of assay [11] is DNA dC->dU-editing enzyme APOBEC-3G (Homo sapiens, UniProt Q9HC16). As to the kind of experiment: inhibition of APOBEC3G ssDNA deamination – biochemical, fluorescence, single-stranded DNA substrate, SAR follow-up (AID 602136). In kind it is functional. As to conditions: read-out: IC50_Mean.
Assay [12] is described as follows: viability loss in Vero cells – cell-based, purified and synthesized samples, set 8, cytotoxicity control for M. tuberculosis inhibitor project (AID 602431). In kind it is functional. As to conditions: Mycobacterium tuberculosis.
Assay [13] can be described thus: THP-1 cell cytotoxicity, cytotoxicity control, set 6 (AID 602433). As to conditions: Mycobacterium tuberculosis. In kind it is functional.

T2 sequence (O43614 whole entry): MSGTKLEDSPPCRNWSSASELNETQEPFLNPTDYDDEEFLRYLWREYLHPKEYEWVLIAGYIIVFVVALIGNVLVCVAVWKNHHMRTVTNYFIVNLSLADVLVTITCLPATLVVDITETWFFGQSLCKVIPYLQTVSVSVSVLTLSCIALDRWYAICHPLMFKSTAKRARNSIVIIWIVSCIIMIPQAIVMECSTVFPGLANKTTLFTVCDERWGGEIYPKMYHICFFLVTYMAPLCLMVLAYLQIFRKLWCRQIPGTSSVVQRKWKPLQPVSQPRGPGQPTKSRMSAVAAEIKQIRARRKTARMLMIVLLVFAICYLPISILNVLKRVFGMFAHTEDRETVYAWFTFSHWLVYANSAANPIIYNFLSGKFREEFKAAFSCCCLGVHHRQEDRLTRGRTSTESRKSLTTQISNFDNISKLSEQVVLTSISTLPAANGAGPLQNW
T1 sequence (O43613 whole entry): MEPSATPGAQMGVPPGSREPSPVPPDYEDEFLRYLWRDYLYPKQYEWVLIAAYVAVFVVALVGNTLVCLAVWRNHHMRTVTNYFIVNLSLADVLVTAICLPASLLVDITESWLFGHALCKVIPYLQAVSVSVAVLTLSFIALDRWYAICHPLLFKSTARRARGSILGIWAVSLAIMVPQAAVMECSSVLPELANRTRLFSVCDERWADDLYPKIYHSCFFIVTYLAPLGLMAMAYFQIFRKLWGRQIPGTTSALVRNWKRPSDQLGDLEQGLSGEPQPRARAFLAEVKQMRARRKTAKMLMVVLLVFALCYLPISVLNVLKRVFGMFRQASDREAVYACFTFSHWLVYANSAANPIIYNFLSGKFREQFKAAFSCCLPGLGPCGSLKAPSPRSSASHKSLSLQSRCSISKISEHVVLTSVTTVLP
DNA dC->dU-editing enzyme APOBEC-3A, sequence (P31941 whole entry): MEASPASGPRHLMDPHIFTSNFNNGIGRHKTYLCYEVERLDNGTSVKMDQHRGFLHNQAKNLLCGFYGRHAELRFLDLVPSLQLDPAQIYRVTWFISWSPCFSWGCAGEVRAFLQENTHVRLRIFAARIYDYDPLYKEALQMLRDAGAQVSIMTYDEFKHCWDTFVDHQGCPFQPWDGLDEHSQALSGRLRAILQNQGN
DNA dC->dU-editing enzyme APOBEC-3G, sequence (Q9HC16 whole entry): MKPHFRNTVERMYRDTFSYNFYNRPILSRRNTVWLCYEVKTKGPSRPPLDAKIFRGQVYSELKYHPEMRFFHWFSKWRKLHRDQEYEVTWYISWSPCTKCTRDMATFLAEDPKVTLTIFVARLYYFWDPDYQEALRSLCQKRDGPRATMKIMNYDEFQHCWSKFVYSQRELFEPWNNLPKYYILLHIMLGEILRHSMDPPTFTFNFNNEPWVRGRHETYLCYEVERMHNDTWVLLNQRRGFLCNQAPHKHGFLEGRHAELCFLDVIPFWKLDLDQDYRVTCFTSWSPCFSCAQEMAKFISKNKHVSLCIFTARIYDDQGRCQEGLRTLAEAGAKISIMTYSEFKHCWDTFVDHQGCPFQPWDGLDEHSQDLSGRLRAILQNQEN

On to `CCOc1ccccc1N1CCN(C(=O)c2ccc(S(=O)(=O)Nc3ccccc3)cc2)CC1`, for which the IC50 was 25.6 µM (inactive) in assay [1]; 1.12 µM (active) in assay [2]; 15.1 µM (inactive) in [3]; 42.5 µM (inactive) on Orexin receptor type 2 [4]; > 50 µM (inactive) on Orexin receptor type 2 [5]; > 66.2 µM (inactive) in the assay on CHO-K1.
Turning to `CC(C)CN1CCN(Cc2cccn2-c2ccc(Cl)cn2)CC1CCO` (stereo unspecified), the EC50 is 8.24 µM (active) in [6] and > 71.5 µM (inactive) at Troponin, cardiac muscle.
As for `Oc1ccc(Cl)cc1/C=N/Nc1cc(N2CCCC2)nc(N2CCCC2)n1`, the IC50 (in [7]; in [8]; at Caspase-3; in [9]) was > 99 µM (inactive) throughout.
As for `O=C(CCN1CCSC1=O)Nc1cc(Cl)ccc1N1CCOCC1`, the IC50 in [10] and in [11] was > 99 µM (inactive) in each case.
Turning to `CC1CCCN(c2c(NCc3ccc(C(=O)N4CC=C(c5ccccc5)CC4)cc3)c(=O)c2=O)C1` (stereo unspecified), the CC50 in assay [12] was 67.2 µM (active); in [13], 17.4 µM (active).

These data come from ChEMBL document CHEMBL1201862, “PubChem BioAssay data set” (2004).
